From patent publication US9073855B2, “BCL-2 selective apoptosis-inducing agents for the treatment of cancer and immune diseases” (AbbVie Inc., priority 2008, dated 2015) come the findings set out here.

pEC50, pKi: −log10 of the molar value. Bounds are passed on as bounds.

Assay [1] addresses GST-Bcl-XL (Homo sapiens, UniProt Q07817). In words: TR-FRET binding assay, GST-Bcl-XL with F-Bak peptide probe. The conditions noted are these: TR-FRET Binding Affinity, GST-Bcl-XL, F-Bak peptide probe. In a few lines:
(§1)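 Displacement of a fluorescein-labelled Bak peptide from the GST-tagged protein was followed by time-resolved FRET with a terbium anti-GST donor after 3 h incubation at room temperature. Inhibition constants were calculated with Wang's equation.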
Background: Time-resolved FRET reads energy transfer from a long-lived donor to a nearby acceptor.

Assay [2] concerns Canine platelets. As to the kind of experiment: Platelet cell viability assay (platelet-rich plasma, Cell Titer Glo). It is filed as cell-based. The following applies: Canis lupus familiaris, 5 h, isolated canine platelets ex vivo, five hours at 37° C. In short, it runs like this: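 Isolated canine platelets were incubated ex vivo with a range of compound concentrations. After 20 min equilibration at room temperature, viability was measured by Cell Titer Glo luminescence.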
In general terms: In ATP-based viability assays light output follows the ATP content of the culture.

Assay [3] deals with FL5.12/Bcl-2 cells. In words: FL5.12/Bcl-2 cell viability assay under IL-3 withdrawal (CellTitre Glo). The following applies: Mus musculus, IL-3 withdrawn 48 hrs, then 24 hrs with compound. It is filed as cell-based, murine. In a few lines:
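Murine IL-3-dependent FL5.12 cells stably overexpressing Bcl-2 were deprived of IL-3 (WEHI-3B conditioned medium) for 48 h, then exposed to various compound concentrations for 24 h at 37 °C. Viability read by CellTiter-Glo luminescence.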

Assay [4] has as its target GST-Bcl-2 (Homo sapiens, UniProt P10415). In words: TR-FRET binding assay, GST-Bcl-2 with F-Bak peptide probe. The conditions noted are these: TR-FRET Binding Affinity, GST-Bcl-2, F-Bak peptide probe. In a few lines: as §1

GST-Bcl-XL, sequence (Q07817 whole entry): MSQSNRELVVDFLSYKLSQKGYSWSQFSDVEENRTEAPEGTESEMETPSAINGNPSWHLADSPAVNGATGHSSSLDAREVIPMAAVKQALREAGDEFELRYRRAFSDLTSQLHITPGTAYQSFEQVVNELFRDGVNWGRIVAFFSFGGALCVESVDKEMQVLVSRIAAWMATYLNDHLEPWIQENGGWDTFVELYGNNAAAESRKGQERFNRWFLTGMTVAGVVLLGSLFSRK
GST-Bcl-2, sequence (P10415 whole entry): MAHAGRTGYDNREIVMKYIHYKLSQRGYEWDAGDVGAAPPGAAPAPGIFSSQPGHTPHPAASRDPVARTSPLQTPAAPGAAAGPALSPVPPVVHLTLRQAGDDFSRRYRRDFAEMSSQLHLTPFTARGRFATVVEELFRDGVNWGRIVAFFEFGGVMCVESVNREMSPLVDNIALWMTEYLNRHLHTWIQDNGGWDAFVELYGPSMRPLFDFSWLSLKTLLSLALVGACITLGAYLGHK

In the case of `O=C(NS(=O)(=O)c1ccc(NCCCN2CCCC2)c([N+](=O)[O-])c1)c1ccc(N2CCN(CC3=C(c4ccc(Cl)cc4)CCCCCC3)CC2)cc1Oc1cccc2[nH]ccc12` [Example 142, 4-(4-{[2-(4-chlorophenyl)cyclooct-1-en-1-yl]methyl}piperazin-1-yl)-2-(1H-indol-4-yloxy)-N-({3-nitro-4-[(3-pyrrolidin-1-ylpropyl)amino]phenyl}sulfonyl)benzamide], the pKi (commonly the Ki on a negative log10 scale, so that one unit is a factor of ten) in assay [1] was 6.99; in assay [4] it was 8.44. Besides, the results for the negative-log EC50 (pEC50) in assay [2] and in assay [3] were less than 4.30 and 6.57, respectively.
In the same order, the values of `O=C(NS(=O)(=O)c1ccc(NCCCN2CCCC2)c([N+](=O)[O-])c1)c1ccc(N2CCN(CC3=C(c4ccc(Cl)cc4)CCC3)CC2)cc1Oc1cccc2[nH]ccc12` [Example 143, 4-(4-{[2-(4-chlorophenyl)cyclopent-1-en-1-yl]methyl}piperazin-1-yl)-2-(1H-indol-4-yloxy)-N-({3-nitro-4-[(3-pyrrolidin-1-ylpropyl)amino]phenyl}sulfonyl)benzamide] are 7.12, 8.65, less than 4.30 and 6.70.
For `CN1CCC(Nc2ccc(S(=O)(=O)NC(=O)c3ccc(N4CCN(CC5=C(c6ccc(Cl)cc6)CC(C)(C)C5)CC4)cc3Oc3cccc4[nH]ccc34)cc2[N+](=O)[O-])CC1` [Example 144, 4-(4-{[2-(4-chlorophenyl)-4,4-dimethylcyclopent-1-en-1-yl]methyl}piperazin-1-yl)-2-(1H-indol-4-yloxy)-N-({4-[(1-methylpiperidin-4-yl)amino]-3-nitrophenyl}sulfonyl)benzamide], the negative-log Ki (pKi) in assay [1] is less than 6.18; in assay [4], 7.27. For the same compound, the pEC50 – broadly, −log10 of the EC50, conventionally taken in molar units – was 4.40 in assay [2] and 7.34 in assay [3].
Regarding `CN1CCC(Nc2ccc(S(=O)(=O)NC(=O)c3ccc(N4CCN(CC5=C(c6ccc(Cl)cc6)CC(C)(C)OC5)CC4)cc3Oc3cccc4[nH]ccc34)cc2[N+](=O)[O-])CC1` [Example 145, 4-(4-{[4-(4-chlorophenyl)-6,6-dimethyl-5,6-dihydro-2H-pyran-3-yl]methyl}piperazin-1-yl)-2-(1H-indol-4-yloxy)-N-({4-[(1-methylpiperidin-4-yl)amino]-3-nitrophenyl}sulfonyl)benzamide], the pKi is 7.92 in assay [1] and 10.52 in assay [4]. The negative logarithm of the EC50 (pEC50) in assay [2] was 5.49; in assay [3], 8.40.
`CN1CCC(Nc2ccc(S(=O)(=O)NC(=O)c3ccc(N4CCN(CC5=C(c6ccc(Cl)cc6)CCCCCC5)CC4)cc3Oc3cccc4[nH]ccc34)cc2[N+](=O)[O-])CC1` [Example 146, 4-(4-{[2-(4-chlorophenyl)cyclooct-1-en-1-yl]methyl}piperazin-1-yl)-2-(1H-indol-4-yloxy)-N-({4-[(1-methylpiperidin-4-yl)amino]-3-nitrophenyl}sulfonyl)benzamide]: the figures for the negative-log Ki (pKi) in assay [1] and in assay [4] were less than 6.18 and 7.35, respectively. In addition, the pEC50 in assay [2] was 4.66; in assay [3] it was 6.82.
Turning to `CN1CCC(Nc2ccc(S(=O)(=O)NC(=O)c3ccc(N4CCN(CC5=C(c6ccc(Cl)cc6)CCCCC5)CC4)cc3Oc3cccc4[nH]ccc34)cc2[N+](=O)[O-])CC1` [Example 147, 4-(4-{[2-(4-chlorophenyl)cyclohept-1-en-1-yl]methyl}piperazin-1-yl)-2-(1H-indol-4-yloxy)-N-({4-[(1-methylpiperidin-4-yl)amino]-3-nitrophenyl}sulfonyl)benzamide], the negative logarithm of the Ki (pKi) in assay [1] was less than 6.18; in assay [4], 9.29. Also, the negative-log EC50 (pEC50) is 4.75 in assay [2] and 8.05 in assay [3].
With `CN1CCC(Nc2ccc(S(=O)(=O)NC(=O)c3ccc(N4CCN(CC5=C(c6ccc(Cl)cc6)CCCC5)CC4)cc3Oc3cccc4[nH]ccc34)cc2[N+](=O)[O-])CC1` [Example 149, 4-(4-{[2-(4-chlorophenyl)cyclohex-1-en-1-yl]methyl}piperazin-1-yl)-2-(1H-indol-4-yloxy)-N-({4-[(1-methylpiperidin-4-yl)amino]-3-nitrophenyl}sulfonyl)benzamide], the pKi in assay [1] was less than 6.18; in assay [4], 9.58. Further, the negative-log EC50 (pEC50) in assay [2] is 4.78; in assay [3], 7.89.
Take `CN1CCC(Nc2ccc(S(=O)(=O)NC(=O)c3ccc(N4CCN(CC5=C(c6ccc(Cl)cc6)CC(C)(C)OC5)CC4)cc3Oc3ccc4[nH]ccc4c3)cc2[N+](=O)[O-])CC1` [Example 150, 4-(4-{[4-(4-chlorophenyl)-6,6-dimethyl-5,6-dihydro-2H-pyran-3-yl]methyl}piperazin-1-yl)-2-(1H-indol-5-yloxy)-N-({4-[(1-methylpiperidin-4-yl)amino]-3-nitrophenyl}sulfonyl)benzamide]: the values for the pKi in assay [1] and in assay [4] were 8.03 and 10.85, respectively. The pEC50 in assay [2] is 5.54; in assay [3], 8.22.
As for `CN1CCC(Nc2ccc(S(=O)(=O)NC(=O)c3ccc(N4CCN(CC5=C(c6ccc(Cl)cc6)CCCCC5)CC4)cc3Oc3ccc4[nH]ccc4c3)cc2[N+](=O)[O-])CC1` [Example 151, 4-(4-{[2-(4-chlorophenyl)cyclohept-1-en-1-yl]methyl}piperazin-1-yl)-2-(1H-indol-5-yloxy)-N-({4-[(1-methylpiperidin-4-yl)amino]-3-nitrophenyl}sulfonyl)benzamide], the pKi in assay [1] was less than 6.18; in assay [4] it was 9.79. For the same compound, the negative-log EC50 (pEC50) was 4.50 in assay [2] and 7.31 in assay [3].
In the same order, the values of `CN1CCC(Nc2ccc(S(=O)(=O)NC(=O)c3ccc(N4CCN(CC5=C(c6ccc(Cl)cc6)CC(C)(C)CC5)CC4)cc3Oc3ccccc3)cc2[N+](=O)[O-])CC1` [Example 152, 4-(4-{[2-(4-chlorophenyl)-4,4-dimethylcyclohex-1-en-1-yl]methyl}piperazin-1-yl)-N-({4-[(1-methylpiperidin-4-yl)amino]-3-nitrophenyl}sulfonyl)-2-phenoxybenzamide] are 9.39, 10.59, 5.58 and 8.05.
`CN(C)CCCNc1ccc(S(=O)(=O)NC(=O)c2ccc(N3CCN(Cc4ccccc4-c4ccc(Cl)cc4)CC3)cc2Oc2ccccc2)cc1[N+](=O)[O-]` [Example 154, 4-{4-[(4′-chloro-1,1′-biphenyl-2-yl)methyl]piperazin-1-yl}-N-[(4-{[3-(dimethylamino)propyl]amino}-3-nitrophenyl)sulfonyl]-2-phenoxybenzamide]: the pKi in assay [1] is 8.27; in assay [4], 9.88. For the same compound, the pEC50 in assay [2] was 4.54; in assay [3], 7.07.
As to `O=C(NS(=O)(=O)c1ccc(NCCCN2CCOCC2)c([N+](=O)[O-])c1)c1ccc(N2CCN(Cc3ccccc3-c3ccc(Cl)cc3)CC2)cc1Oc1ccccc1` [Example 155, 4-{4-[(4′-chloro-1,1′-biphenyl-2-yl)methyl]piperazin-1-yl}-N-({4-[(3-morpholin-4-ylpropyl)amino]-3-nitrophenyl}sulfonyl)-2-phenoxybenzamide], the negative-log Ki (pKi) was 7.42 in assay [1] and 9.32 in assay [4]. Also, the negative-log EC50 (pEC50) in assay [2] was less than 4.30; in assay [3] it was 6.38.
In the case of `CN(C)CCCNc1ccc(S(=O)(=O)NC(=O)c2ccc(N3CCN(Cc4ccccc4-c4ccc(Cl)cc4)CC3)cc2Oc2ccc3ccccc3c2)cc1[N+](=O)[O-]` [Example 166, 4-{4-[(4′-chloro-1,1′-biphenyl-2-yl)methyl]piperazin-1-yl}-N-[(4-{[3-(dimethylamino)propyl]amino}-3-nitrophenyl)sulfonyl]-2-(2-naphthyloxy)benzamide], the pKi in assay [1] was 8.49; in assay [4], 9.34. The pEC50 was less than 4.30 in assay [2] and 6.82 in assay [3].
Turning to `CN(C)CCCNc1ccc(S(=O)(=O)NC(=O)c2ccc(N3CCN(CC4=C(c5ccc(Cl)cc5)CC(C)(C)CC4)CC3)cc2Oc2ccc3[nH]ccc3c2)cc1S(=O)(=O)C(F)(F)F` [Example 170, 4-(4-{[2-(4-chlorophenyl)-4,4-dimethylcyclohex-1-en-1-yl]methyl}piperazin-1-yl)-N-({4-{[3-(dimethylamino)propyl]amino}-3-[(trifluoromethyl)sulfonyl]phenyl}sulfonyl)-2-(1H-indol-5-yloxy)benzamide], the negative logarithm of the Ki (pKi) was 8.42 in assay [1] and 9.90 in assay [4]. Further, the pEC50 was 5.13 in assay [2] and 7.82 in assay [3].
With `CN(C)CCCNc1ccc(S(=O)(=O)NC(=O)c2ccc(N3CCN(CC4=C(c5ccc(Cl)cc5)CC(C)(C)CC4)CC3)cc2Oc2ccc3[nH]ccc3c2)cc1C(F)(F)F` [Example 171, 4-(4-{[2-(4-chlorophenyl)-4,4-dimethylcyclohex-1-en-1-yl]methyl}piperazin-1-yl)-N-{[4-{[3-(dimethylamino)propyl]amino}-3-(trifluoromethyl)phenyl]sulfonyl}-2-(1H-indol-5-yloxy)benzamide], the pKi in assay [1] was 7.28; in assay [4] it was 8.53. The results for the pEC50 in assay [2] and in assay [3] were less than 4.30 and 6.56, respectively.
For `CN(C)CCCNc1ccc(S(=O)(=O)NC(=O)c2ccc(N3CCN(CC4=C(c5ccc(Cl)cc5)CC(C)(C)CC4)CC3)cc2Oc2ccc3[nH]ccc3c2)cc1C#N` [Example 172, 4-(4-{[2-(4-chlorophenyl)-4,4-dimethylcyclohex-1-en-1-yl]methyl}piperazin-1-yl)-N-[(3-cyano-4-{[3-(dimethylamino)propyl]amino}phenyl)sulfonyl]-2-(1H-indol-5-yloxy)benzamide], in that order: 7.18, 8.69, less than 4.30 and 6.71.
